Some test systems named below: BT-549; MCF7; MDA-N.
Holding throughout (assay): NCI-60 cell line screen, 48 h

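Following 48 hours of exposure in 96-well plates, responses at five concentrations were used to interpolate endpoints linearly. GI50: concentration for 50% inhibition of growth.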 Active and inactive are the calls of the source. No stated cut-off is given here; in the data, active = GI50 up to about 1.1 µM and inactive = higher.

With `Nc1nc(O)c(N)c(NCCOCP(=O)(O)O)n1`, the results for the GI50 in the experiment on BT-549, in the experiment on MCF7 and in the experiment on MDA-N were > 74.8 µM (inactive), > 100 µM (inactive) and > 100 µM (inactive), respectively.

For `NS(=O)(=O)c1ccc(NC(=O)Nc2cccc3ccccc23)cc1`, the GI50 with BT-549 is 87.1 µM (inactive); in the experiment on MCF7 it was 31.2 µM (inactive); in the experiment with MDA-N, 54.8 µM (inactive).

On to `COc1cccc2c3cccc(OC)c3c3[nH]cnc3c12`, for which the GI50 in the experiment on BT-549 is 16.1 µM (inactive); in the experiment with MCF7, 1.58 µM (inactive); with MDA-N, 1.85 µM (inactive).

With `c1ccc2c3nnc(c2c1)SCCCSc1nnc(c2ccccc12)SCCCS3`, the GI50 in the experiment on MCF7 and with MDA-N was > 100 µM (inactive) each time.

On to `C=C1[C@H](OCC(C)C)[C@@H](OC(=O)C(C)CC)[C@@H](O)C(C)(C)/C=C/[C@H](C)C(=O)[C@@]2(O)C[C@H](C)[C@H](O)[C@@H]2[C@H]1OC(=O)C(C)CC` (stereo not given in full), for which the figures for the GI50 in the experiment on BT-549, in the experiment with MCF7 and with MDA-N were 4.63 µM (inactive), 5.92 µM (inactive) and 1.26 µM (inactive), respectively.

On to `O=C(Oc1ccc(OC(Oc2ccccc2)c2ccccc2)cc1)c1ccccc1` (stereo not given), for which the values for the GI50 in the experiment with BT-549, in the experiment with MCF7 and in the experiment on MDA-N were 26.5 µM (inactive), 29.8 µM (inactive) and 14.4 µM (inactive), respectively.

Regarding `O=[N+]([O-])c1ccc2nc(=S)[nH]n2c1`, the GI50 with BT-549 and in the experiment with MCF7 was > 100 µM (inactive) each time.

With `N[C@H]1CCCC[C@@H]1N1C(=O)c2ccccc2C1(O)c1ccc(Cl)cc1` (stereo not given in full), the GI50 was 15 µM (inactive) in the experiment with BT-549, 12.3 µM (inactive) in the experiment with MCF7 and 11.8 µM (inactive) in the experiment on MDA-N.

For `O=C1C(Cl)=C(N[C@@H](Cc2ccccc2)C(=O)OCc2ccccc2)C(=O)c2c(O)ccc(O)c21`, the results for the GI50 with BT-549 and in the experiment with MDA-N were > 10 µM (inactive) and 2.89 µM (inactive), respectively.

Consider `C=CCC1(OCc2ccccc2)C(=O)C(=O)OC1C1COC(C)(C)O1` (stereo not given), for which the GI50 in the experiment on BT-549, in the experiment on MCF7 and with MDA-N was > 100 µM (inactive) each time.

With `COC(=O)c1sc2c(=O)c(C(=O)OC)c(C(=O)OC)sc2c(=O)c1C(=O)OC`, the GI50 in the experiment with BT-549, in the experiment on MCF7 and in the experiment with MDA-N was > 100 µM (inactive) in each case.

Consider `Cc1c(C)n(-c2ccccc2)c2nc([S+](C)[O-])nc([S+](C)[O-])c12` (stereo not given), for which the GI50 in the experiment on BT-549 is 0.755 µM (active); with MCF7, 2.16 µM (inactive); in the experiment on MDA-N, 3.68 µM (inactive).

`Cc1cn(CC2=NCCCN2)c(=O)[nH]c1=O`: the GI50 in the experiment on BT-549, with MCF7 and with MDA-N was > 100 µM (inactive) each time.

Consider `O=C(NCc1cccnc1)NCc1cccnc1`, for which the GI50 in the experiment with BT-549, in the experiment with MCF7 and in the experiment with MDA-N was > 100 µM (inactive) throughout.

For `COc1cc(OC)c(C/C=C/c2ccccc2)cc1O`, the GI50 was 16.1 µM (inactive) in the experiment with BT-549 and 18.1 µM (inactive) in the experiment on MDA-N.

In the case of `N[C@@H](Cc1ccccc1)C(=O)N1CCC[C@@H]1P(=O)(Oc1ccccc1)Oc1ccccc1`, the GI50 in the experiment with BT-549, in the experiment on MCF7 and in the experiment with MDA-N was > 100 µM (inactive) throughout.

As to `CC1(C)[C@H]2CC[C@@]13C(=O)N1C(=O)O[C@@H]([C@H]1Cl)C(Cl)(COCc1ccccc1)C(=O)OCCO[C@H]3C2` (stereo not given in full), the GI50 is 61.2 µM (inactive) in the experiment with BT-549, 44.2 µM (inactive) with MCF7 and 64.9 µM (inactive) with MDA-N.

`COc1ccc(OC)c2c1ccc1c(C)c3ccccc3c(C)c12`: the GI50 with BT-549 is > 100 µM (inactive); in the experiment with MCF7 it was 20.9 µM (inactive); in the experiment with MDA-N, 79.1 µM (inactive).

For the compound `Nc1ncn2c(n1)nc1ccccc12`, the GI50 with BT-549, with MCF7 and in the experiment with MDA-N was > 100 µM (inactive) throughout.

Take `COc1ccc(C(CC(C)=O)c2c(O)c3ccccc3oc2=O)cc1OC` (stereo not given): the GI50 in the experiment with BT-549, with MCF7 and in the experiment with MDA-N was > 100 µM (inactive) in each case.

As to `CC1(C)C(O)c2ccccc2OC1N1CCN(C2Oc3ccccc3C(O)C2(C)C)CC1` (stereo not given), the GI50 in the experiment with MCF7 and with MDA-N was > 100 µM (inactive) in each case.

`Cc1ccc(C(=O)C2=CN=C3C(=O)N(c4ccccc4)N(C)C3(C)C2=N)cc1` (stereo not given): the GI50 in the experiment on BT-549, in the experiment with MCF7 and with MDA-N was > 100 µM (inactive) each time.

`CC(C)(C)OC(=O)NC1CCCC1C(=O)C1=CCCC1` (stereo not given): the GI50 was > 100 µM (inactive) in the experiment with BT-549 and 53 µM (inactive) in the experiment on MDA-N.

As to `CC1(C)O[C@@H]2[C@@H](COC(C)(C)O[C@H]2C2SCCCS2)O1`, the GI50 in the experiment on MCF7 and in the experiment with MDA-N was > 100 µM (inactive) throughout.

On to `Cc1nnc2c3c(-c4ccccc4)c(-c4ccccc4)oc3nc(N(C)C)n12`, for which the GI50 in the experiment on MCF7 is 33.3 µM (inactive).

Regarding `CCOP(=O)(OCC)C(Nc1ccc(Br)cc1)c1cccc([N+](=O)[O-])c1` (stereo not given), in the experiment on MDA-N, the GI50 is 19.2 µM (inactive).

Take `CCOC(=O)c1sc2ncnc(N)c2c1C`: the GI50 in the experiment on BT-549 was > 100 µM (inactive); in the experiment on MCF7, 51.6 µM (inactive); with MDA-N, 41.8 µM (inactive).

Regarding `N#Cc1c(Cl)nc2ccccc2c1N=[N+]=[N-]`, the GI50 in the experiment with BT-549 was 1.8 µM (inactive); in the experiment on MCF7, 4.56 µM (inactive); in the experiment on MDA-N it was 13.3 µM (inactive).

Regarding `CNc1ncc(-c2nnnn2-c2ccccc2)c(CN(C)C)n1`, the GI50 with BT-549 and in the experiment with MCF7 was > 100 µM (inactive) each time.

On to `Nc1c(-c2nc3ccccc3s2)c2ccc([N+](=O)[O-])cc2c(=O)n1-c1cccc(C(=O)O)c1`, for which the results for the GI50 with BT-549 and in the experiment on MDA-N were 20.1 µM (inactive) and 45.1 µM (inactive), respectively.

`Cn1c(N)c(Cc2ccc(Cl)cc2)c(=O)[nH]c1=O`: the GI50 with BT-549, in the experiment on MCF7 and in the experiment on MDA-N was > 100 µM (inactive) each time.

For the compound `O=[N+]([O-])c1ccc(C(c2c[nH]c3ccccc23)c2c[nH]c3ccccc23)cc1`, the figures for the GI50 with BT-549, in the experiment with MCF7 and in the experiment on MDA-N were 4.97 µM (inactive), 2.24 µM (inactive) and 11.6 µM (inactive), respectively.

Take `Cc1ccc(S(=O)(=O)NNC(=O)Nc2ccc([N+](=O)[O-])cc2)cc1`: the GI50 was 78.9 µM (inactive) in the experiment on BT-549, 35.6 µM (inactive) in the experiment with MCF7 and > 100 µM (inactive) in the experiment with MDA-N.

With `CCCCCC1=C/C(=C\c2[nH]c(-c3ccc[nH]3)cc2OC)N=C1C`, the GI50 in the experiment on BT-549 is 0.0324 µM (active); with MCF7, 0.0136 µM (active); in the experiment with MDA-N it was < 0.01 µM (active).

On to `CCOP(=O)(OCC)/C(C#N)=C/c1ccc(-c2cc(C(F)(F)F)cc(C(F)(F)F)c2)o1`, for which the values for the GI50 with BT-549, in the experiment on MCF7 and with MDA-N were 25.7 µM (inactive), 6.3 µM (inactive) and 13.3 µM (inactive), respectively.

`COC(=O)[C@H](Cc1c[nH]c2ccccc12)NC(=O)c1ccc(CNC(=O)/C(C)=C/c2ccccc2)cc1`: the GI50 is 28.1 µM (inactive) in the experiment on BT-549, 29.2 µM (inactive) with MCF7 and 19.8 µM (inactive) in the experiment with MDA-N.

On to `Cc1cc2c(cc1O)CC[C@@H]1[C@@H]2CC[C@]2(C)[C@@H](O)CC[C@@H]12`, for which the figures for the GI50 in the experiment with BT-549, in the experiment on MCF7 and in the experiment on MDA-N were 6.27 µM (inactive), 8.85 µM (inactive) and 1.9 µM (inactive), respectively.

`O=C(Cn1ccnc1[N+](=O)[O-])NCCO` [ETANIDAZOLE]: the GI50 in the experiment with BT-549 and with MCF7 was > 100 µM (inactive) each time.

The values are drawn from ChEMBL document CHEMBL1201862, “PubChem BioAssay data set” (2004).
